Reference: a melting point compilation (Tetko et al.)

| Structure (SMILES) | melting point [°C] |
| --- | --- |
| CCCNC(N)=O | 107 to 109 |
| Cc1c(F)c(F)c(COC(=O)C2C(C=C(Cl)C(F)(F)F)C2(C)C)c(F)c1F (configuration not stated) | 44.6 |
| O=C1NN=C(C(F)(F)F)C1=NNc1ccc(Br)cc1 | 212 |
| O=C(O)CSCCSCC(=O)O | 110 |
| ON=Cc1ccc(Br)cc1 | 118 |
| O=C(CO)[C@@H](O)[C@H](O)[C@@H](O)CO | 165 |
| COC(=O)c1cnc(SC)nc1 | 96 to 97 |
| C=CCC1=C(OC(C)=O)C2=CC=C3C(C)=C(C)C(=O)CC3(C)C2=C(O)C1=O (configuration not stated) | 93 |
| Brc1n[nH]c(Br)c1Br | 190 to 192 |
| CCCS(=O)(=O)CCC | 29.5 |
| O=[N+]([O-])c1ccc(Oc2ccc(N=C=S)cc2)cc1 | 122 to 124 |
| Clc1ccc(OCCCI)cc1 | 31 to 33 |
| O=c1c(Cl)c[nH]cc1Cl | 322 |
| BrCc1cc(CBr)c(CBr)cc1CBr | 156 to 162 |
| COc1ccc(OCCBr)cc1 | 46 to 50 |
| Cc1cc(C)c(O)cc1O | 126 |
| CCCCCCCCCCCC(C)C | -25 |
| CCC(C)CCC(C)(O)CC (configuration not stated) | -67.5 |
| CN1CCN(Cc2ccc(CO)cc2)CC1 | 96 to 98 |
| ON=C1CCCc2nonc21 | 166 to 168 |
| COc1ccc(N=C=S)c(OC)c1 | 52 |
| CN(C(=O)COc1nc2ccccc2s1)c1ccccc1 | 135 |
| Cc1cc(O)c(C(C)(C)C)cc1C(C)CC(c1cc(C(C)(C)C)c(O)cc1C)c1cc(C(C)(C)C)c(O)cc1C (configuration not stated) | 186 |
| CC12CCC(=O)CC1CCC1C2CCC2(C)C(O)(C(=O)CO)CCC12O (configuration not stated) | 218 |

| Structure (SMILES) | melting point [°C] |
| --- | --- |
| CCOC(=O)c1c(Cl)cc(C)cc1N1CCCC1 | 78 to 79 |
| N#Cc1ccc(C(F)(F)F)cc1Cl | 83 |
| CCC#CCC | -103 |
| COc1cc2c(cc1OCc1ccccc1)C(CC(C)C)N(Oc1c([N+](=O)[O-])cc([N+](=O)[O-])cc1[N+](=O)[O-])CC2 (configuration not stated) | 173 |
| COc1ccc(-n2c(SC)nc3ccccc3c2=O)cc1 | 154 to 156 |
| c1ccc2c(c1)ccc1c3ccccc3sc21 | 189 |
| Cc1cc(C#N)cc(Cl)c1N | 129 |
| C=CCC#N | -87 |
| FC(F)(F)C1(F)C(F)(F)C(F)(F)C(F)(F)C(F)(F)C1(F)C(F)(F)F (configuration not stated) | -56 |
| Oc1nccnc1O | 300 |
| NS(=O)(=O)c1ccc(CCCCCO)cc1 | 86 |
| Ic1ccc(N2CCOCC2)cc1 | 131 to 132 |
| CC(=O)C1CC[C@]2(C)[C@H]3CC[C@]4(C)C(O)CC[C@H]4[C@@H]3CC[C@@]2(C)C1 (some centres not stated) | 152 |
| C#CCCCCCCC(=O)O | 19 |
| N#CCc1ccccc1C#N | 73 to 79 |
| CCC(=O)C(=O)O | 33 |
| CC12CCC(C=CC1=O)C2(C)C (configuration not stated) | 174 |
| N#Cc1cccc(Cl)c1 | 41 |
| OCC(O)CI (configuration not stated) | 48.5 |
| CC(C)c1cc(C(C)C)c(S(=O)(=O)N=[N+]=[N-])c(C(C)C)c1 | 42 |
| CCS(=O)(=O)c1nc2ccccn2c1S(=O)(=O)NC(=O)Nc1nc(OC)cc(OC)n1 | 202 |
| C[N+](C)(C)CCOP(=O)([O-])OCC(O)CO (configuration not stated) | 142 |
| FC(Br)C(F)(F)F (configuration not stated) | -80 |
| NN=C(N)C(S)=NN | 150 |

| Structure (SMILES) | melting point [°C] |
| --- | --- |
| CC(C)CS(=O)(=O)CC(C)C | 17 |
| CC(=O)C=C(C)N | 39 |
| CC(=O)c1cc2c(cc1Br)OCCCO2 | 56 to 58 |
| O=C(O)C=Cc1ccc(N2CCCC2)c([N+](=O)[O-])c1 | 243 to 245 |
| CNP(=O)(NC)Oc1ccccc1 | 102 |
| O=C(CBr)c1ccsc1 | 61 to 62 |
| COC(=O)c1ccc(N2N=N2)cc1 | 40 |
| CCOc1ccc(N=C=S)cc1 | 60 to 61 |
| Cc1cc(C)c(CC#N)c(C)c1 | 78.5 |
| Cc1cnc(Cl)c([N+](=O)[O-])c1 | 46 to 50 |
| CCC(C#N)CC#N (configuration not stated) | -41 |
| NS(=O)(=O)c1cc2c(s1)SCCC2=O | 222 |
| CC12CCC(C=C/C1=N\O)C2(C)C (configuration not stated) | 145 to 146 |
| CC(C)(C)OC(=O)C(C)(C)Sc1nnc(N)s1 | 175 to 176 |
| CCC(Cc1c(I)cc(I)c(O)c1I)C(=O)O (configuration not stated) | 147 |
| Cc1cc(Cl)cc([N+](=O)[O-])c1 | 61 |
| Cc1cc2c(c(C)c1C)CC2 | 38 |
| Cc1cccc(OP(=O)(Oc2cccc(C)c2)Oc2cccc(C)c2)c1 | 25.5 |
| COc1cc(F)c(OC)cc1F | 121 |
| CCOC(=O)c1sc(SC)nc1NC(=O)Nc1ccc(Cl)c(Cl)c1 | 158 to 162 |
| CC(=O)OC1CCC2C3CCC4CC(C(C)=O)=CCC4(C)C3CCC12C (configuration not stated) | 115 to 140 |
| Clc1cc2oc3c(Cl)c(Cl)c(Cl)cc3c2cc1Cl | 196 |
| CC=CCCC=CC | -76 |

Now from value to molecule:

| melting point [°C] | Structure (SMILES) |
| --- | --- |
| 116 | O=C1c2ccccc2C(=O)N1Cc1ccccc1 |
| 108 | O=C(OCC(=O)N1CCCCCC1)c1ccccc1 |
| 348 | CC1(C)CC(=O)C2=C(C1)Nc1ccc3ccccc3c1C2c1ccc(Cl)cc1Cl (configuration not stated) |
| 179 | Cn1cncc1CC1COC(=O)C1C(O)c1ccccc1 (configuration not stated) |
| 182 | O=C(c1ccccc1)C(c1ccccc1)(c1ccccc1)c1ccccc1 |
| 84 to 89 | CC(C)(C)OC(=O)N1c2ccccc2CC1CO (configuration not stated) |
| 61.5 | Fc1cccc(P(c2cccc(F)c2)c2cccc(F)c2)c1 |
| 166 | O=C(O)CC(CC(=O)O)c1ccc(Cl)cc1 |
| 224 | Nc1cnn(-c2ccccc2)c(=O)c1Br |
| 182 | COc1ccccc1C(=O)N(NC(=O)c1ccccc1)C(C)(C)C |
| 212 to 216 | O=C(O)c1sc(-c2ccccc2)nc1-c1ccccc1 |
| 211 to 212 | N#Cc1cccc2c(NC(=O)c3ccccc3)cccc12 |
| 139 | CC(=O)Nc1ccc(C(C)=O)c(C)c1 |
| 270 | Cn1c(=O)c(C2=NNC(=O)C2=NNc2ccccc2Br)c(O)c2ccccc21 |
| 164 | O=C(O)c1c(Cl)cccc1[N+](=O)[O-] |
| 180 | Cc1cc(C(N)=O)ccc1Br |
| 122 to 123 | O=Cc1ccc(-c2ccccn2)s1 |
| 189 | CCOC(=O)C1=C(C)NC(=O)NC1c1ccc2c(c1)OCO2 (configuration not stated) |
| 69 | CN(C)c1ccc(CO)cc1 |
| 111 | c1ccc(/N=N/c2ccccc2/N=N/c2ccccc2)cc1 |
| 160 | O=C(Cn1c(=O)sc2ccc(Cl)cc21)N1CCN(CCO)CC1 |

| melting point [°C] | Structure (SMILES) |
| --- | --- |
| 290 | Cn1c(=O)c(C2=NNC(=O)C2=CNc2ccc(Cl)cc2)c(O)c2ccccc21 |
| 75 to 76 | CON(/C=C1\C(=O)C2(C)CCC1C2(C)C)c1ccccc1 (configuration not stated) |
| 281 | CCC1(c2ccccc2)C(=O)NCNC1=O |
| 148 | N#CC(=Cc1cccs1)c1nc2ccccc2s1 |
| 177 | c1cnc2ccc3ncccc3c2c1 |
| < 20 | Brc1ccc(Oc2cccc(Br)c2)cc1 |
| 141 to 145 | O=C(O)COc1ccccc1Br |
| 123 to 124 | Brc1ccc2[nH]ncc2c1 |
| 207 to 209 | CSc1nc2cc(NCc3ccccc3Cl)ccc2[nH]1 |
| 68 to 71 | CSc1ccc(Oc2cccc(F)c2C#N)cc1 |
| 73 | CCc1ccc(C#Cc2ccc(C)cc2)cc1 |
| 68 | CC(=O)C=CC=Cc1ccccc1 |
| 147 | O=C(CCl)c1ccc(C(=O)C(Cl)Cl)cc1 |
| 171 | CC1(C)C2CCC1(C)C(O)C2C(c1ccccc1)c1ccccc1 (configuration not stated) |
| -75 | CCC(C)c1ccccc1 (configuration not stated) |
| 181 | Nc1ccc(S(=O)(=O)Nc2ccnn2-c2ccccc2)cc1 |
| 316 | O=C(O)c1ccc(-c2ccc(O)cc2)cc1 |
| 49 to 50 | Brc1ccc2c(c1)CCO2 |
| 100 | Cc1cc([N+]([O-])=Nc2ccccc2)ccc1[N+]([O-])=Nc1ccccc1 |
| 231 | CCCCNc1cc(C(=O)O)cc(S(N)(=O)=O)c1Oc1ccccc1 |
| 148 to 150 | O=C(O)C1CC(=O)N(CCc2ccc(Cl)cc2)C1 (configuration not stated) |

| melting point [°C] | Structure (SMILES) |
| --- | --- |
| 138 | Cc1ccccc1C(=O)Cc1ccccc1C(=O)O |
| 106 to 110 | O=[N+]([O-])c1cccc2nsnc12 |
| 134 | NC(=O)CCCNC(=C1C=C(F)C=CC1=O)c1ccc(Cl)cc1 |
| 77 | Cl/C(=C\c1ccccc1)c1ccc2c3c(cccc13)CC2 |
| 48 to 50 | c1ccc2c(c1)OCCOCCOCCO2 |
| 116 | O=C(OCC(=O)N1CCC[C@H]1C(=O)O)c1ccccc1 |
| 65.5 to 66.5 | CNCc1ccc(-c2cccs2)nc1 |
| 44.5 | OCc1ccc(F)cc1Cl |
| 174 | O=C(O)COc1cccc(Cl)c1Cl |
| 205 | c1ccc(-c2nnc3n2CN(c2ccccc2)CS3)cc1 |
| 107 | OCc1csc(-c2ccc(C(F)(F)F)cc2)n1 |
| 185 to 186 | CSC(=NC#N)Nc1ccccc1 |
| 34 | CCC1C(=O)OCC1Cc1cncn1C (configuration not stated) |
| 198 | CCOc1ccc(C(=O)O)cc1 |
| 61 to 63 | Cc1onc(-c2ccccc2)c1CBr |
| 335 to 337 | Cc1cc(C)c2c(=O)n(-c3ccc(Br)cc3)c(S)nc2n1 |
| 146 to 148 | CC1(C)CC(=O)c2cc(-c3ccccc3)n(Cc3cccnc3)c2C1 |
| 135 | CCC(C(=O)C=Cc1ccccc1)C(=O)OC1CC(C)CCC1C(C)C (configuration not stated) |
| 173 to 176 | O=C(O)C[C@H](C(=O)O)c1ccccc1 |
